Experimental data: patent US20260265699A1, “STANDARDISING PLURIPOTENT STEM CELLS” (United Kingdom Research and Innovation, priority 2023, published 2026)
Entries after “also recorded” stand apart in the source; their conditions may differ.

Assays:
Type in all cases: cell-based, human
[1] = test system: PS cells; assay: PSC basal (maintenance) culture; details: inhibition of SRC at basal culture, prolonged exposure
Text: (§1) The so called “unguided protocol” relies on the natural propensity of PSCs to differentiate to neural fate and specifically forebrain when not exposed to any growth factors. The inventors cultured PSCs in Stemflex (Thermo) medium on plates coated with Matrigel growth factor reduced (Corning) and for generation of brain organoids they used STEMdiff Cerebral Organoid Kit (Stemcell Technologies). Despite these highly standardised conditions (FIG. 1A), the outcome of the protocol (i.e. the identity and quality of the tissues produced) can vary depending on the cell line that was used in the protocol or even between different batches of the same line (FIGS. 1 B and C). This makes producing good quality organoids from different lines difficult and unpredictable. To address this variability that plagues not only the neural organoid field but also others that rely on 2D and 3D differentiation to a variety of cell types, the inventors investigated the potential sources of this variability in PSCs and potential treatments to address this problem or, in other words, to standardise the performance of PSCs during differentiation.
There is a huge body of literature describing potential sources of PSC variability and a similar number of publications about ways to address this in a particular context, for example to increase efficiency of differentiation towards a certain tissue type. […]

[2] = test system: PSC lines that did not readily differentiate into neural tissue; assay: Cerebral organoid differentiation, unguided protocol (STEMdiff Cerebral Organoid Kit), panel of bad differentiator lines; details: for Effect: organoid morphology: inhibition of Wnt at organoid stage, added at embedding stage
Text: The so called “unguided protocol” relies on the natural propensity of PSCs to differentiate to neural fate and specifically forebrain when not exposed to any growth factors. The inventors cultured PSCs in Stemflex (Thermo) medium on plates coated with Matrigel growth factor reduced (Corning) and for generation of brain organoids they used STEMdiff Cerebral Organoid Kit (Stemcell Technologies). […] To address this variability that plagues not only the neural organoid field but also others that rely on 2D and 3D differentiation to a variety of cell types, the inventors investigated the potential sources of this variability in PSCs and potential treatments to address this problem or, in other words, to standardise the performance of PSCs during differentiation.
Because neural differentiation represents the default program upon pluripotency exit, the ability of a cell line to undergo such unguided differentiation is also a good indication of their pluripotent state. The other approach was to in depth characterise PSC lines that either produce good or bad organoids by proteomics and phosphoproteomics, analysis of already available bulk RNAseq data to learn about their transcriptome, and by ATACseq to learn about open chromatin patterns. […] Based on the combination of information gathered from both approaches, a number of treatments were chosen to test on the bad differentiators.

[3] = test system: burb1 cells; assay: Cerebral organoid differentiation, unguided protocol, burb1 line
Text: (§2) The so called “unguided protocol” relies on the natural propensity of PSCs to differentiate to neural fate and specifically forebrain when not exposed to any growth factors. The inventors cultured PSCs in Stemflex (Thermo) medium on plates coated with Matrigel growth factor reduced (Corning) and for generation of brain organoids they used STEMdiff Cerebral Organoid Kit (Stemcell Technologies). Despite these highly standardised conditions (FIG. 1A), the outcome of the protocol (i.e. the identity and quality of the tissues produced) can vary depending on the cell line that was used in the protocol or even between different batches of the same line (FIGS. 1 B and C). This makes producing good quality organoids from different lines difficult and unpredictable. To address this variability that plagues not only the neural organoid field but also others that rely on 2D and 3D differentiation to a variety of cell types, the inventors investigated the potential sources of this variability in PSCs and potential treatments to address this problem or, in other words, to standardise the performance of PSCs during differentiation. […]
(§3) To establish such an approach, the inventors analysed the epigenetic state of human pluripotent stem cells and the role of epigenetics in development. […]

[4] = test system: sojd3 cells; assay: Cerebral organoid differentiation, unguided protocol, sojd3 line; details: inhibition of Wnt in culture, Stemflex with 2-3 μM IWP2, long term (>8 passages)
Text: as §2, §3

[5] = test system: kolf2 cells (organoid non-competent batch); assay: Cerebral organoid differentiation, unguided protocol, bad batch of kolf2; details: generation of organoids with MEK inhibition
Text: as §1
(§4) Because neural differentiation represents the default program upon pluripotency exit, the ability of a cell line to undergo such unguided differentiation is also a good indication of their pluripotent state. […]

[6] = test system: fiaj1 cells; assay: Cerebral organoid differentiation, unguided protocol, fiaj1 line; details: fiaj 1
Text: as §1, §4

Molecule: COc1cccc(-c2cn(-c3ccc(CCN4CCC(O)CC4)cc3)c3ncnc(N)c23)c1 [CGP-77675]
- Effect on PS cells in basal culture [1]: outcome, differentiation of PS
- Effect: organoid differentiation outcome ([2]; inhibition of SRC at basal culture): Worse organoid differentiation

Molecule: Cc1ccc2nc(NC(=O)CSc3nc4c(c(=O)n3-c3ccccc3)SCC4)sc2c1 [IWP2]
- Effect: organoid generation / brain organoid competency ([3]; inhibition of Wnt in culture, Stemflex with 2-3 μM IWP2, long term (>8 passages)): able to restore organoid competency; also recorded: acquired brain organoid competency; also recorded: improved organoid
- Effect: organoid morphology [2]: embedding stage improve
- Effect: organoid generation / brain organoid competency [4]: did not improve; also recorded: no improvement in sojd3

Molecule: O=C(NOC[C@H](O)CO)c1ccc(F)c(F)c1Nc1ccc(I)cc1F [PD0325901]
- Effect: organoid differentiation [5]: Some improvement in bad
- Effect: improvement of organoid differentiation ([6]; generation of organoids with MEK inhibition): batch of kolf2, no

Molecule: COc1ccc(N(C(=O)Oc2c(C)cccc2C)c2ccnc(Nc3ccc(N4CCN(C)CC4)cc3)n2)c(OC)c1 [WH-4-023]
- Effect: organoid differentiation outcome ([2]; inhibition of SRC at organoid generation, alone): no improvement alone,
- Effect: organoid differentiation outcome ([2]; inhibition of SRC at organoid generation, used alongside with HRG): improves outcome when used

Molecule: recombinant human laminin 521 [L521]
- Effect: organoid generation ([3]; PSC culture on L521): improved organoid generation
- Effect: organoid differentiation ([6]; culture on L521 micropatterns, areas of correct differentiation a small percentage of organoid volume): worked to some extent in fiaj 1

B1: DKK-1: Wnt inhibition at organoid stage, added at Matrigel embedding (protein, UniProt O94907 32-266, looked up)
Dickkopf-related protein 1: TLNSVLNSNAIKNLPPPLGGAAGHPGSAVSAAPGILYPGGNKYQTIDNYQPYPCAEDEECGTDEYCASPTRGGDAGVQICLACRKRRKRCMRHAMCCPGNYCKNGICVSSDQNHFRGEIEETITESFGNDHSTLDGYSRRTTLSSKMYHTKGQEGSVCLRSSDCASGLCCARHFWSKICKPVLKEGQVCTKHRRKGSHGLEIFQRCYCGEGLSCRIQKDHHQASNSSRLHTCQRH
- Effect: organoid morphology [2]: embedding stage improve
